The values below come from patent publication US20240148821A1, “PHARMACEUTICAL USE OF CYCLIC PEPTIDE COMPOUND” (CHUGAI SEIYAKU KABUSHIKI KAISHA, priority 2021, published 2024).

Numbered stars: 1 amine (or outer) side, 2 acyl side, 3 side chain; on linkers, the order of the positions; unused ones are H or OH. Bridge positions count the residues as written; N and C are the ends. Square brackets hold non-standard residues; d marks the D form. Peptide text beside a SMILES is read from it. * marks the point of attachment. hPhe(3-Cl-4-CF3) = N[C@@H](CCc1ccc(C(F)(F)F)c(Cl)c1)C(=O)O; NMePhe(4-Me) = CN[C@@H](Cc1ccc(C)cc1)C(=O)O; NMedβ3hAla = C[C@H](CC(=O)[*:2])N(C)[*:1]; NMeGly(cPent) = CN[C@H](C(=O)O)C1CCCC1; NMe3Pal = CN[C@@H](Cc1cccnc1)C(=O)O; NMeCha = CN[C@@H](CC1CCCCC1)C(=O)O; NMeAhp(2) = CCCCC[C@H](NC)C(=O)O; NMeChg = CN[C@H](C(=O)O)C1CCCCC1; NMeF = CN[C@@H](Cc1ccccc1)C(=O)O; NMeI = CC[C@H](C)[C@H](NC)C(=O)O; NMeD = CN[C@@H](CC(=O)O)C(=O)O; NMeL = CN[C@@H](CC(C)C)C(=O)O; NMeNle = CCCC[C@H](NC)C(=O)O; NMeNva = CCC[C@H](NC)C(=O)O; NMeV = CN[C@H](C(=O)O)C(C)C; d(β3hA) = C[C@@H](N)CC(=O)O; NMeAbu = CC[C@H](NC)C(=O)O; NMeS = CN[C@@H](CO)C(=O)O; NMeA = CN[C@@H](C)C(=O)O; Piperidide = C1CCN(*)CC1; Pyrrolidide = C1CCN(*)C1; Ac5c = NC1(C(=O)O)CCCC1; Aze = O=C(O)[C@@H]1CCN1; Ac4c = NC1(C(=O)O)CCC1; Sar = CNCC(=O)O; Propyl = CCC*

In this assay the target is protein-protein interaction between Kras and SOS1 (biotin-tagged human Kras loaded with GDP, His-tagged human SOS1) (Homo sapiens (Human), UniProt P01116, G12D). As to the kind of experiment: Protein-protein interaction inhibition between Kras and SOS1 (KrasG12D-SOS PPI) using AlphaScreen.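 Further: kras produced in E. coli, Ni-coupled donor beads and streptavidin acceptor beads, excitation 680 nm with emission detected at 520–620 nm via singlet oxygen transfer.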 In kind it is biochemical. To be noted: AlphaScreen; biotin-tagged human Kras loaded with GDP, His-tagged human SOS1; read-out: KRAS G12D-SOS PPI IC50. (In general: In Alpha technology, singlet oxygen from a donor bead excites a nearby acceptor bead.)
In the case of `CC[C@H](C)[C@@H]1NC(=O)[C@H](CC(C)C)N(C)C(=O)C[C@@H](C)NC(=O)[C@H](C(C)C)N(C)C(=O)C2(CCCC2)NC(=O)[C@@H]2CCCN2C(=O)[C@H](CCc2ccc(C(F)(F)F)c(Cl)c2)NC(=O)CN(C)C(=O)[C@H](CC2CCCCC2)N(C)C(=O)[C@@H]2CCN2C(=O)[C@H](CC(C)C)N(C)C1=O` [Compound 1619] (cyclo([Ac5c][NMeV][d(β3hA)][NMeL]I[NMeL][Aze][NMeCha][Sar][hPhe(3-Cl-4-CF3)]P)), the IC50 (usually the point on the concentration scale where inhibition reaches its midpoint) was found to be 360 nM.
As to `CC[C@H](C)[C@@H]1NC(=O)[C@H](CC(C)C)N(C)C(=O)C[C@@H](C)NC(=O)[C@H](C(C)C)N(C)C(=O)C2(CCCC2)NC(=O)[C@@H]2CCCN2C(=O)[C@H](CCc2ccc(C(F)(F)F)c(Cl)c2)NC(=O)CN(C)C(=O)[C@H](CC2CCCCC2)N(C)C(=O)[C@@H]2CCN2C(=O)[C@H](Cc2ccccc2)N(C)C1=O` [Compound 1628] (cyclo([Ac5c][NMeV][d(β3hA)][NMeL]I[NMeF][Aze][NMeCha][Sar][hPhe(3-Cl-4-CF3)]P)), the IC50 is 67 nM.
For `CC[C@H](C)[C@@H]1NC(=O)[C@H](CC)N(C)C(=O)C[C@@H](C(=O)N2CCCCC2)N(C)C(=O)[C@H](C(C)C)N(C)C(=O)C2(CCCC2)NC(=O)[C@@H]2CCCN2C(=O)[C@H](CCc2ccc(C(F)(F)F)c(Cl)c2)NC(=O)CN(C)C(=O)[C@H](CC2CCCCC2)N(C)C(=O)[C@@H]2CCN2C(=O)[C@H](C)N(C)C1=O` [Compound 1638] ([NMeAbu]I[NMeA][Aze][NMeCha][Sar][hPhe(3-Cl-4-CF3)]P[Ac5c][NMeV][NMeD]-Piperidide; lactam N-11), the IC50 was found to be 7.3 nM.
On to `CCC[C@H]1C(=O)N[C@@H]([C@@H](C)CC)C(=O)N(C)[C@@H](C)C(=O)N2CC[C@H]2C(=O)N(C)[C@@H](CC2CCCCC2)C(=O)N(C)CC(=O)N[C@@H](CCc2ccc(C(F)(F)F)c(Cl)c2)C(=O)N2CCC[C@H]2C(=O)NC2(CCCC2)C(=O)N(C)[C@@H](C(C)C)C(=O)N(C)[C@H](C(=O)N2CCCCC2)CC(=O)N1C` [Compound 1639] ([NMeNva]I[NMeA][Aze][NMeCha][Sar][hPhe(3-Cl-4-CF3)]P[Ac5c][NMeV][NMeD]-Piperidide; lactam N-11), for which the IC50 is 5.8 nM.
Consider `CCCOC[C@H]1C(=O)N(C)CC(=O)N[C@@H](CCc2ccc(C(F)(F)F)c(Cl)c2)C(=O)N2CCC[C@H]2C(=O)NC2(CCCC2)C(=O)N(C)[C@@H](C(C)C)C(=O)N(C)[C@H](C(=O)N2CCCCC2)CC(=O)N(C)[C@@H](CC(C)C)C(=O)N[C@@H]([C@@H](C)CC)C(=O)N(C)[C@@H](C)C(=O)N2CC[C@H]2C(=O)N1C` [Compound 1646] ([NMeL]I[NMeA][Aze][NMeS](Propyl)[Sar][hPhe(3-Cl-4-CF3)]P[Ac5c][NMeV][NMeD]-Piperidide; lactam N-11), for which the IC50 was determined as 4.6 nM.
Then `CC[C@H](C)[C@@H]1NC(=O)[C@H](CC(C)C)N(C)C(=O)C[C@@H](C)N(C)C(=O)[C@H](C(C)C)N(C)C(=O)C2(CCCC2)NC(=O)[C@@H]2CCCN2C(=O)[C@H](CCc2ccc(C(F)(F)F)c(Cl)c2)NC(=O)CN(C)C(=O)[C@H](CC2CCCCC2)N(C)C(=O)[C@@H]2CCN2C(=O)CN(C)C1=O` [Compound 1648] (cyclo([Ac5c][NMeV][NMedβ3hAla][NMeL]I[Sar][Aze][NMeCha][Sar][hPhe(3-Cl-4-CF3)]P)), with 10 nM.
As for `CC[C@H](C)[C@@H]1NC(=O)[C@H](CC(C)C)N(C)C(=O)C[C@@H](C(=O)N(C)C)N(C)C(=O)[C@H](C(C)C)N(C)C(=O)C2(CCCC2)NC(=O)[C@@H]2CCCN2C(=O)[C@H](CCc2ccc(C(F)(F)F)c(Cl)c2)NC(=O)CN(C)C(=O)[C@H](Cc2ccc(C)cc2)N(C)C(=O)[C@@H]2CCN2C(=O)[C@H](C)N(C)C1=O` [Compound 1653] ([NMeL]I[NMeA][Aze][NMePhe(4-Me)][Sar][hPhe(3-Cl-4-CF3)]P[Ac5c][NMeV][NMeD]-NMe2; lactam N-11), the IC50 stood at 0.89 nM.
With `CC[C@H](C)[C@@H]1NC(=O)[C@H](CC(C)C)N(C)C(=O)C[C@@H](C)NC(=O)[C@H]([C@@H](C)CC)N(C)C(=O)C2(CCCC2)NC(=O)[C@@H]2CCCN2C(=O)[C@H](CCc2ccc(C(F)(F)F)c(Cl)c2)NC(=O)CN(C)C(=O)[C@H](CC2CCCCC2)N(C)C(=O)[C@@H]2CCN2C(=O)[C@H](C)N(C)C1=O` [Compound 1654] (cyclo([Ac5c][NMeI][d(β3hA)][NMeL]I[NMeA][Aze][NMeCha][Sar][hPhe(3-Cl-4-CF3)]P)), the IC50 amounted to 22 nM.
Then `CC[C@H](C)[C@@H]1NC(=O)[C@H](CC(C)C)N(C)C(=O)C[C@@H](C(=O)N2CCCCC2)N(C)C(=O)[C@H](CC(C)C)N(C)C(=O)C2(CCCC2)NC(=O)[C@@H]2CCCN2C(=O)[C@H](CCc2ccc(C(F)(F)F)c(Cl)c2)NC(=O)CN(C)C(=O)[C@H](CC2CCCCC2)N(C)C(=O)[C@@H]2CCN2C(=O)[C@H](C)N(C)C1=O` [Compound 1657] ([NMeL]I[NMeA][Aze][NMeCha][Sar][hPhe(3-Cl-4-CF3)]P[Ac5c][NMeL][NMeD]-Piperidide; lactam N-11), with 2.8 nM; and `CC[C@H](C)[C@@H]1NC(=O)[C@H](CC(C)C)N(C)C(=O)C[C@@H](C(=O)N2CCCC2)N(C)C(=O)[C@H](C(C)C)N(C)C(=O)C2(CCCC2)NC(=O)[C@@H]2CCCN2C(=O)[C@H](CCc2ccc(C(F)(F)F)c(Cl)c2)NC(=O)CN(C)C(=O)[C@H](CC2CCCCC2)N(C)C(=O)[C@@H]2CCN2C(=O)CN(C)C1=O` [Compound 1670] ([NMeL]I[Sar][Aze][NMeCha][Sar][hPhe(3-Cl-4-CF3)]P[Ac5c][NMeV][NMeD]-Pyrrolidide; lactam N-11), with 1 nM; and `CC[C@H](C)[C@@H]1NC(=O)[C@H](CC(C)C)N(C)C(=O)C[C@@H](C(=O)N2CCCCC2)N(C)C(=O)[C@H](C(C)C)N(C)C(=O)C2(CCC2)NC(=O)[C@@H]2CCCN2C(=O)[C@H](CCc2ccc(C(F)(F)F)c(Cl)c2)NC(=O)CN(C)C(=O)[C@H](CC2CCCCC2)N(C)C(=O)[C@@H]2CCN2C(=O)[C@H](C)N(C)C1=O` [Compound 1672] ([NMeL]I[NMeA][Aze][NMeCha][Sar][hPhe(3-Cl-4-CF3)]P[Ac4c][NMeV][NMeD]-Piperidide; lactam N-11), with 4.3 nM.
Consider `CC[C@H](C)[C@@H]1NC(=O)[C@H](CC(C)C)N(C)C(=O)C[C@@H](C(=O)N(C)C)N(C)C(=O)[C@H](C2CCCCC2)N(C)C(=O)C2(CCCC2)NC(=O)[C@@H]2CCCN2C(=O)[C@H](CCc2ccc(C(F)(F)F)c(Cl)c2)NC(=O)CN(C)C(=O)[C@H](CC2CCCCC2)N(C)C(=O)[C@@H]2CCN2C(=O)[C@H](C)N(C)C1=O` [Compound 1675] ([NMeL]I[NMeA][Aze][NMeCha][Sar][hPhe(3-Cl-4-CF3)]P[Ac5c][NMeChg][NMeD]-NMe2; lactam N-11), for which the IC50 amounted to 1.2 nM.
Turning to `CC[C@H](C)[C@@H]1NC(=O)[C@H](CC(C)C)N(C)C(=O)C[C@@H](C(=O)N2CCCC2)N(C)C(=O)[C@H](C2CCCC2)N(C)C(=O)C2(CCCC2)NC(=O)[C@@H]2CCCN2C(=O)[C@H](CCc2ccc(C(F)(F)F)c(Cl)c2)NC(=O)CN(C)C(=O)[C@H](CC2CCCCC2)N(C)C(=O)[C@@H]2CCN2C(=O)[C@H](C)N(C)C1=O` [Compound 1679] ([NMeL]I[NMeA][Aze][NMeCha][Sar][hPhe(3-Cl-4-CF3)]P[Ac5c][NMeGly(cPent)][NMeD]-Pyrrolidide; lactam N-11), the IC50 came out at 0.85 nM.
As to `CC[C@H](C)[C@@H]1NC(=O)[C@H](CC(C)C)N(C)C(=O)C[C@@H](C(=O)N(C)C)N(C)C(=O)[C@H](C2CCCCC2)N(C)C(=O)C2(CCCC2)NC(=O)[C@@H]2CCCN2C(=O)[C@H](CCc2ccc(C(F)(F)F)c(Cl)c2)NC(=O)CN(C)C(=O)[C@H](Cc2ccc(C)cc2)N(C)C(=O)[C@@H]2CCN2C(=O)[C@H](C)N(C)C1=O` [Compound 1685] ([NMeL]I[NMeA][Aze][NMePhe(4-Me)][Sar][hPhe(3-Cl-4-CF3)]P[Ac5c][NMeChg][NMeD]-NMe2; lactam N-11), the IC50 was found to be 0.6 nM.
For `CC[C@H](C)[C@@H]1NC(=O)[C@H](CC(C)C)N(C)C(=O)C[C@@H](C(=O)N2CCCC2)N(C)C(=O)[C@H](C2CCCCC2)N(C)C(=O)C2(CCCC2)NC(=O)[C@H](Cc2cccnc2)N(C)C(=O)[C@H](CCc2ccc(C(F)(F)F)c(Cl)c2)NC(=O)CN(C)C(=O)[C@H](CC2CCCCC2)N(C)C(=O)CN(C)C(=O)CN(C)C1=O` [Compound 1693] ([NMeL]I[Sar][Sar][NMeCha][Sar][hPhe(3-Cl-4-CF3)][NMe3Pal][Ac5c][NMeChg][NMeD]-Pyrrolidide; lactam N-11), the IC50 came out at 1.7 nM.
The result for `CCCCC[C@H]1C(=O)N[C@@H]([C@@H](C)CC)C(=O)N(C)[C@@H](C)C(=O)N2CC[C@H]2C(=O)N(C)[C@@H](CC2CCCCC2)C(=O)N(C)CC(=O)N[C@@H](CCc2ccc(C(F)(F)F)c(Cl)c2)C(=O)N2CCC[C@H]2C(=O)NC2(CCCC2)C(=O)N(C)[C@@H](C(C)C)C(=O)N(C)[C@H](C(=O)N2CCCCC2)CC(=O)N1C` [Compound 1705] ([NMeAhp(2)]I[NMeA][Aze][NMeCha][Sar][hPhe(3-Cl-4-CF3)]P[Ac5c][NMeV][NMeD]-Piperidide; lactam N-11) reads 9.8 nM; that for `CCCC[C@H]1C(=O)N(C)CC(=O)N[C@@H](CCc2ccc(C(F)(F)F)c(Cl)c2)C(=O)N2CCC[C@H]2C(=O)NC2(CCCC2)C(=O)N(C)[C@@H](C(C)C)C(=O)N(C)[C@H](C(=O)N2CCCCC2)CC(=O)N(C)[C@@H](CC(C)C)C(=O)N[C@@H]([C@@H](C)CC)C(=O)N(C)[C@@H](C)C(=O)N2CC[C@H]2C(=O)N1C` [Compound 1712] ([NMeL]I[NMeA][Aze][NMeNle][Sar][hPhe(3-Cl-4-CF3)]P[Ac5c][NMeV][NMeD]-Piperidide; lactam N-11), 9.8 nM; that for `CC[C@H](C)[C@@H]1NC(=O)[C@H](CC(C)C)N(C)C(=O)C[C@@H](C)N(C)C(=O)[C@H](C2CCCC2)N(C)C(=O)C2(CCCC2)NC(=O)[C@@H]2CCCN2C(=O)[C@H](CCc2ccc(C(F)(F)F)c(Cl)c2)NC(=O)CN(C)C(=O)[C@H](CC2CCCCC2)N(C)C(=O)[C@@H]2CCN2C(=O)[C@H](C)N(C)C1=O` [Compound 1717] (cyclo([Ac5c][NMeGly(cPent)][NMedβ3hAla][NMeL]I[NMeA][Aze][NMeCha][Sar][hPhe(3-Cl-4-CF3)]P)), 3.3 nM.
